molecular target: T1, human PAD4 (Homo sapiens, UniProt Q9UM07); experiment: In vitro PAD4 BAEE biochemical assay; conditions: human PAD4, BAEE substrate; 5 nM PAD4, 2 mM calcium chloride, 3 mM BAEE; geometric mean of multiple experiments
T1 construct: human PAD4 (NM_012387), A2P663, was PCR amplified; His-SUMO (N, cleaved yes); made in house; host or cells: E. coli BL21(DE3)
How it was run: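 Ammonia generated from BAEE serves as the readout, measured by o-phthalaldehyde after EDTA termination. Final conditions: 5 nM human PAD4 (SUMO tag cleaved), 2 mM CaCl2, 3 mM BAEE, pH 7.6 MOPS buffer, 25 °C for 2 h following a 30-min compound preincubation.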

T1 sequence (Q9UM07 2-663): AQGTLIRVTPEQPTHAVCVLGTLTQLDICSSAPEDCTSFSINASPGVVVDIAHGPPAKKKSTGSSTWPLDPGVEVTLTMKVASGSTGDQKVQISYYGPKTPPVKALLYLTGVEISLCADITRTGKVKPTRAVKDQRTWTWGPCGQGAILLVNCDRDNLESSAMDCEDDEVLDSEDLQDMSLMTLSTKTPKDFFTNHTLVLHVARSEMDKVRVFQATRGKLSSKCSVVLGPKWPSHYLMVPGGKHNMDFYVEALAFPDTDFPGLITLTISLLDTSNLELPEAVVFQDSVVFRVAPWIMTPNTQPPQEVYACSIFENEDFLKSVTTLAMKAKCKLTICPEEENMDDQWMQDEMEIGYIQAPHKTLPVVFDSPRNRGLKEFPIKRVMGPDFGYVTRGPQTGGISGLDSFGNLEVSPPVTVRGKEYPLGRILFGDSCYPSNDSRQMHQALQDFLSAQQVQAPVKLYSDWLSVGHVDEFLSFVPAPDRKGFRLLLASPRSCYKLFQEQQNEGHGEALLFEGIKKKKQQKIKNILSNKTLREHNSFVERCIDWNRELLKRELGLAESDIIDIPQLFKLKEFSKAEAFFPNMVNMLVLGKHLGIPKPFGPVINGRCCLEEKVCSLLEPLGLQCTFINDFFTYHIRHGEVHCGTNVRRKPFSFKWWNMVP

IC50 [nM]	SMILES
37.9	COc1cc(C(=O)N2[C@H]3CC[C@@H]2[C@H](N)C3)cc2nc(-c3cc4ccc([C@@H](C)NC(=O)N5CC(C(F)F)C5)nc4n3CC3CC3)c(C)n12 [Example 206, ~{N}-[(1~{R})-1-[2-[7-[(1~{R},2~{R},4~{S})-2-amino-7-azabicyclo[2.2.1]heptane-7-carbonyl]-5-methoxy-3-methylimidazo [1,2-a]pyridin-2-yl]-1-(cyclopropylmethyl)pyrrolo [2,3-b]pyridin-6-yl]ethyl]-3-(difluoromethyl)azetidine-1-carboxamide]
46	COc1cc(C(=O)N2[C@H]3CC[C@@H]2[C@H](N)C3)cc2nc(-c3cc4ccc([C@@H](C)NC(=O)N5CCC(F)(F)CC5)nc4n3CC3CC3)c(C)n12 [Example 207, ~{N}-[(1~{R})-1-[2-[7-[(1~{R},2~{R},4~{S})-2-amino-7-azabicyclo[2.2.1]heptane-7-carbonyl]-5-methoxy-3-methylimidazo [1,2-a]pyridin-2-yl]-1-(cyclopropylmethyl)pyrrolo [2,3-b]pyridin-6-yl]ethyl]-4,4-difluoropiperidine-1-carboxamide]
111	COc1cc(C(=O)N2[C@H]3CC[C@@H]2[C@H](N)C3)cc2nc(-c3cc4ccc([C@@H](C)NC(=O)N5CC(F)(F)C(F)(F)C5)nc4n3CC3CC3)c(C)n12 [Example 208, ~{N}-[(1~{R})-1-[2-[7-[(1~{R},2~{R},4~{S})-2-amino-7-azabicyclo[2.2.1]heptane-7-carbonyl]-5-methoxy-3-methylimidazo [1,2-a]pyridin-2-yl]-1-(cyclopropylmethyl)pyrrolo [2,3-b]pyridin-6-yl]ethyl]-3,3,4,4-tetrafluoropyrrolidine-1-carboxamide]
37.8	COc1cc(C(=O)N2[C@H]3CC[C@@H]2[C@H](N)C3)cc2nc(-c3cc4ccc([C@@H](C)NC(=O)N5CC6C(C5)C6(F)F)nc4n3CC3CC3)c(C)n12 (some centres unmarked) [Example 209, ~{N}-[(1~{R})-1-[2-[7-[(1~{R},2~{R},4~{S})-2-amino-7-azabicyclo[2.2.1]heptane-7-carbonyl]-5-methoxy-3-methylimidazo [1,2-a]pyridin-2-yl]-1-(cyclopropylmethyl)pyrrolo [2,3-b]pyridin-6-yl]ethyl]-6,6-difluoro-3-azabicyclo[3.1.0]hexane-3-carboxamide]
39.7	COc1cc(C(=O)N2[C@H]3CC[C@@H]2[C@H](N)C3)cc2nc(-c3cc4ccc([C@@H](C)NC(=O)N5CCO[C@H](C)C5)nc4n3CC3CC3)c(C)n12 [Example 210, (2~{R})-~{N}-[(1~{R})-1-[2-[7-[(1~{R},2~{R}, 4~{S})-2-amino-7-azabicyclo[2.2.1]heptane-7-carbonyl]-5-methoxy-3-methylimidazo [1,2-a]pyridin-2-yl]-1-(cyclopropylmethyl)pyrrolo [2,3-b]pyridin-6-yl]ethyl]-2-methylmorpholine-4-carboxamide]
31.6	COc1cc(C(=O)N2[C@H]3CC[C@@H]2[C@H](N)C3)cc2nc(-c3cc4ccc([C@@H](C)NC(=O)N5CC6CC(C5)O6)nc4n3CC3CC3)c(C)n12 [Example 211, ~{N}-[(1~{R})-1-[2-[7-[(1~{R},2~{R},4~{S})-2-amino-7-azabicyclo[2.2.1]heptane-7-carbonyl]-5-methoxy-3-methylimidazo [1,2-a]pyridin-2-yl]-1-(cyclopropylmethyl)pyrrolo [2,3-b]pyridin-6-yl]ethyl]-6-oxa-3-azabicyclo [3.1.1]heptane-3-carboxamide]
64.5	COc1cc(C(=O)N2[C@H]3CC[C@@H]2[C@H](N)C3)cc2nc(-c3cc4ccc([C@@H](C)NC(=O)NC5(C)CC(F)(F)C5)nc4n3CC3CC3)c(C)n12 [Example 212, 1-[(1~{R})-1-[2-[7-[(1~{R},2~{R},4~{S})-2-amino-7-azabicyclo[2.2.1]heptane-7-carbonyl]-5-methoxy-3-methylimidazo [1,2-a]pyridin-2-yl]-1-(cyclopropylmethyl)pyrrolo [2,3-b]pyridin-6-yl]ethyl]-3-(3,3-difluoro-1-methylcyclobutyl)urea]
46.9	COc1cc(C(=O)N2[C@H]3CC[C@@H]2[C@H](N)C3)cc2nc(-c3cc4ccc([C@@H](C)NC(=O)NC(C)(C)C(F)(F)F)nc4n3CC3CC3)c(C)n12 [Example 213, 1-[(1~{R})-1-[2-[7-[(1~{R},2~{R},4~{S})-2-amino-7-azabicyclo[2.2.1]heptane-7-carbonyl]-5-methoxy-3-methylimidazo [1,2-a]pyridin-2-yl]-1-(cyclopropylmethyl)pyrrolo [2,3-b]pyridin-6-yl]ethyl]-3-(1,1,1-trifluoro-2-methylpropan-2-yl)urea]
45	COc1cc(C(=O)N2[C@H]3CC[C@@H]2[C@H](N)C3)cc2nc(-c3cc4ccc([C@@H](C)NC(=O)NC5CCOCC5)nc4n3CC3CC3)c(C)n12 [Example 214, 1-[(1~{R})-1-[2-[7-[(1~{R},2~{R},4~{S})-2-amino-7-azabicyclo[2.2.1]heptane-7-carbonyl]-5-methoxy-3-methylimidazo [1,2-a]pyridin-2-yl]-1-(cyclopropylmethyl)pyrrolo [2,3-b]pyridin-6-yl]ethyl]-3-(oxan-4-yl)urea]
44.2	COc1cc(C(=O)N2[C@H]3CC[C@@H]2[C@H](N)C3)cc2nc(-c3cc4ccc([C@@H](C)NC(=O)N5CC[C@H](CCO)C5)nc4n3CC3CC3)c(C)n12 [Example 215, (3~{R})-~{N}-[(1~{R})-1-[2-[7-[(1~{R},2~{R}, 4~{S})-2-amino-7-azabicyclo[2.2.1]heptane-7-carbonyl]-5-methoxy-3-methylimidazo [1,2-a]pyridin-2-yl]-1-(cyclopropylmethyl)pyrrolo [2,3-b]pyridin-6-yl]ethyl]-3-(2-hydroxyethyl)pyrrolidine-1-carboxamide]
48.3	COc1cc(C(=O)N2[C@H]3CC[C@@H]2[C@H](N)C3)cc2nc(-c3cc4ccc([C@@H](C)NC(=O)N5CC[C@H](F)C5)nc4n3CC3CC3)c(C3CC3)n12 [Example 216, (3~{S})-~{N}-[(1~{R})-1-[2-[7-[(1~{R},2~{R}, 4~{S})-2-amino-7-azabicyclo[2.2.1]heptane-7-carbonyl]-3-cyclopropyl-5-methoxyimidazo [1,2-a]pyridin-2-yl]-1-(cyclopropylmethyl)pyrrolo [2,3-b]pyridin-6-yl]ethyl]-3-fluoropyrrolidine-1-carboxamide]
45.9	COc1cc(C(=O)N2[C@H]3CC[C@@H]2[C@H](N)C3)cc2nc(-c3cc4ccc([C@@H](C)NC(=O)N[C@@H](C)c5cccnc5)nc4n3CC3CC3)c(C3CC3)n12 [Example 217, 1-[(1~{R})-1-[2-[7-[(1~{R},2~{R},4~{S})-2-amino-7-azabicyclo[2.2.1]heptane-7-carbonyl]-3-cyclopropyl-5-methoxyimidazo [1,2-a]pyridin-2-yl]-1-(cyclopropylmethyl)pyrrolo [2,3-b]pyridin-6-yl]ethyl]-3-[(1~{S})-1-pyridin-3-ylethyl]urea]
55.5	COc1cc(C(=O)N2[C@H]3CC[C@@H]2[C@H](N)C3)cc2nc(-c3cc4ccc([C@@H](C)NC(=O)N[C@H](C)c5cccnc5)nc4n3CC3CC3)c(C3CC3)n12 [Example 218, 1-[(1~{R})-1-[2-[7-[(1~{R},2~{R},4~{S})-2-amino-7-azabicyclo[2.2.1]heptane-7-carbonyl]-3-cyclopropyl-5-methoxyimidazo [1,2-a]pyridin-2-yl]-1-(cyclopropylmethyl)pyrrolo [2,3-b]pyridin-6-yl]ethyl]-3-[(1~{R})-1-pyridin-3-ylethyl]urea]
79.1	COc1cc(C(=O)N2[C@H]3CC[C@@H]2[C@H](N)C3)cc2nc(-c3cc4ccc([C@@H](C)NC(=O)N(C)Cc5cccc(=O)[nH]5)nc4n3CC3CC3)c(C)n12 [Example 220, 3-[(1~{R})-1-[2-[7-[(1~{R},2~{R},4~{S})-2-amino-7-azabicyclo[2.2.1]heptane-7-carbonyl]-5-methoxy-3-methylimidazo [1,2-a]pyridin-2-yl]-1-(cyclopropylmethyl)pyrrolo [2,3-b]pyridin-6-yl]ethyl]-1-methyl-1-[(6-oxo-1~{H}-pyridin-2-yl)methyl]urea]
62	COc1cc(C(=O)N2[C@H]3CC[C@@H]2[C@H](N)C3)cc2nc(-c3cc4ccc([C@@H](C)NC(=O)N(C)C(C)c5cccnc5)nc4n3CC3CC3)c(C)n12 (some centres unmarked) [Example 221, 3-[(1~{R})-1-[2-[7-[(1~{R},2~{R},4~{S})-2-amino-7-azabicyclo[2.2.1]heptane-7-carbonyl]-5-methoxy-3-methylimidazo [1,2-a]pyridin-2-yl]-1-(cyclopropylmethyl)pyrrolo [2,3-b]pyridin-6-yl]ethyl]-1-methyl-1-(1-pyridin-3-ylethyl)urea]
77.3	COc1cc(C(=O)N2[C@H]3CC[C@@H]2[C@H](N)C3)cc2nc(-c3cc4ccc([C@@H](C)NC(=O)NCc5ccncc5)nc4n3CC3CC3)c(C)n12 [Example 223, 1-[(1~{R})-1-[2-[7-[(1~{R},2~{R},4~{S})-2-amino-7-azabicyclo[2.2.1]heptane-7-carbonyl]-5-methoxy-3-methylimidazo [1,2-a]pyridin-2-yl]-1-(cyclopropylmethyl)pyrrolo [2,3-b]pyridin-6-yl]ethyl]-3-(pyridin-4-ylmethyl)urea]

SMILES	IC50 [nM]
COc1cc(C(=O)N2[C@H]3CC[C@@H]2[C@H](N)C3)cc2nc(-c3cc4ccc([C@@H](C)NC(=O)N(C)Cc5cccnc5)nc4n3CC3CC3)c(C)n12 [Example 222, 3-[(1~{R})-1-[2-[7-[(1~{R},2~{R},4~{S})-2-amino-7-azabicyclo[2.2.1]heptane-7-carbonyl]-5-methoxy-3-methylimidazo [1,2-a]pyridin-2-yl]-1-(cyclopropylmethyl)pyrrolo [2,3-b]pyridin-6-yl]ethyl]-1-methyl-1-(pyridin-3-ylmethyl)urea]	20

— US12240862B2, “Inhibitors of peptidylarginine deiminases” (Gilead Sciences, Inc., priority 2020, dated 2025)
